Test results reported in patent US10907181B2, “Biosynthetic pathways and products” (REGENTS OF THE UNIVERSITY OF MINNESOTA, priority 2013, dated 2021).

Tests used:
[1] = liquid-liquid solvent extraction at equal volume ratio, HPLC quantification; conditions: not told
[2] = liquid-liquid solvent extraction at equal volume ratio; conditions: not told
[3] = Extraction of anhydromevalonolactone with different organic solvents (extract efficiency and partition coefficient Kd, solvent/water); format: physicochemical
Source text: Purification of anhydromevalonolactone also was studied by extraction with different organic solvents (Table 1). Approximately 96% of the anhydromevalonolactone was extracted when chloroform was applied at a 1:1 volume ratio. […] NMR analysis indicated the anhydromevalonolactone was in the lactone form, instead of equilibrating with its hydroxyacid form (FIG. 6).
The fermentation broth from the bioreactor was harvested by centrifuge, and then was discolored by activated charcoal. The test tubes were filled with 5 mL fermentation broth and concentrated H3PO4 or H2SO4, then autoclaved for one hour to make anhydromevalonate, and then the concentrations of mevalonate and anhydromevalonate were measured by HPLC. Immiscible organic solvents were used to extraction anhydromevalonate from the reaction mixture.

partition coefficient (Kd) [1]: 24.89 concentration ratio (Kd) | partition coefficient (Kd) [2]: 25 concentration ratio (Kd) | Anhydromevalonolactone extract efficiency ([3]; solvent Benzene): 65.26% | Anhydromevalonolactone extract efficiency ([3]; solvent CHC13 (chloroform), 1:1 volume ratio): 96.14% | Anhydromevalonolactone extract efficiency ([3]; solvent CHC13 (chloroform), 1:1 volume ratio, listed as anhydromevalonolactone): Approximately 96% | Anhydromevalonolactone extract efficiency ([3]; solvent DIBK): 44.15% | Anhydromevalonolactone extract efficiency ([3]; solvent MIBK): 79.90% | Anhydromevalonolactone extract efficiency ([3]; solvent Oley): 35.56% | Anhydromevalonolactone extract efficiency ([3]; solvent ethyl acetate): 79.67%
Structure (SMILES): CC1=CC(=O)OCC1 [Anhydromevalonolactone, anhydromevalonolactone]
